Test system: Plasmodium berghei
Test: Luciferase/luciferin-expressing antifolate-resistant parasites were used to infect a culture of HepG2 cells that were pre-incubated with compounds. Infected hepatocytes emit light due to the luciferase reaction. Assay results are presented as the percent inhibition of light emission compared to control. […]
Format: functional
Settings: sporozoite; for IC90: read-out: LUCIFERASE INFECTION ASSAY - IC90
[1] = read-out: LUCIFERASE INFECTION ASSAY - IC50

Compound | IC90 [µM] | IC50 [1] [µM] | also measured
N#Cc1c(Cl)cccc1N1CCCC1c1ccc2c(c1)OCCCO2 (stereo unspecified) | > 10 | – | IC50 (HEPG2TOX_HILL_SLOPE 1.92, HEPG2TOX_R_SQUARED 0.934, read-out: LUCIFERASE INFECTION ASSAY - IC50): > 10 µM
COc1cccc(Oc2ccc(C(F)(F)F)cc2NC(=O)c2ccc(NC(=O)C3CC3)s2)c1 | > 10 | – | IC50 (PBLUC_HILL_SLOPE 3.5, PBLUC_R_SQUARED 0.215, read-out: LUCIFERASE INFECTION ASSAY - IC50): 6.65 µM
O=C(c1ccsc1)N1CCc2nc(NCc3cccc(Oc4ccccc4)c3)ncc2C1 | > 7.46 | – | IC50 (HEPG2TOX_HILL_SLOPE 8.11, HEPG2TOX_R_SQUARED 0.885, read-out: LUCIFERASE INFECTION ASSAY - IC50): > 7.46 µM
Cc1cc(C(C)(C)C)ccc1OC(=O)c1sc2nc3n(c(=O)c2c1C)CCCCC3 | > 10 | > 10 | –
Cc1cccn2c(=O)c(/C=N/O)c(Nc3ccc(SC(F)F)cc3)nc12 | > 10 | > 10 | –
CN(C)c1ccc(C(=O)/C=C/c2ccccc2C(F)(F)F)cc1 | 3.94 | – | IC50 (HEPG2TOX_HILL_SLOPE 2.82, HEPG2TOX_R_SQUARED 0.851, PBLUC_HILL_SLOPE 15.9, PBLUC_R_SQUARED 0.328, read-out: LUCIFERASE INFECTION ASSAY - IC50): 3.43 µM
COc1cc(OC)cc(C2c3c(C)nn(-c4ccccc4)c3NC(=O)C2NC(=O)c2ccccc2)c1 (stereo unspecified) | > 10 | > 10 | –
Cc1ccccc1OCc1occc1C(=O)Nc1cccc(-n2cnnn2)c1 | 6.83 | – | IC50 (HEPG2TOX_HILL_SLOPE 2.96, HEPG2TOX_R_SQUARED 0.854, PBLUC_HILL_SLOPE 2.81, PBLUC_R_SQUARED 0.577, read-out: LUCIFERASE INFECTION ASSAY - IC50): 3.12 µM
Cc1ccccc1-c1ccc(CN2CCC3(CC2)C(=O)N(C)C(=O)N3CC(C)C)cc1 | 3.99 | – | IC50 (HEPG2TOX_HILL_SLOPE 1.94, HEPG2TOX_R_SQUARED 0.943, PBLUC_HILL_SLOPE 7.56, PBLUC_R_SQUARED 0.512, read-out: LUCIFERASE INFECTION ASSAY - IC50): 2.99 µM
O=C1Nc2ccccc2/C1=C/c1ccc(C(F)(F)F)cc1Cl | > 10.2 | > 10.2 | –
COc1ccc(C(=O)Nc2nc3ccccc3[nH]2)cc1 | > 10 | – | IC50 (HEPG2TOX_HILL_SLOPE 4.46, HEPG2TOX_R_SQUARED 0.552, PBLUC_HILL_SLOPE 2.95, PBLUC_R_SQUARED 0.511, read-out: LUCIFERASE INFECTION ASSAY - IC50): 7.58 µM
COc1ccc2c(c1)CCCN2C(=O)c1occc1C | 1.23 | – | IC50 (HEPG2TOX_HILL_SLOPE 0.966, HEPG2TOX_R_SQUARED 0.937, PBLUC_HILL_SLOPE 15.5, PBLUC_R_SQUARED 0.354, read-out: LUCIFERASE INFECTION ASSAY - IC50): 1.07 µM
CN(C)C(=O)N1CCCC(C(=O)Nc2nc(-c3c(F)cccc3F)cs2)C1 (stereo unspecified) | > 10 | – | IC50 (PBLUC_HILL_SLOPE 2.82, PBLUC_R_SQUARED 0.52, read-out: LUCIFERASE INFECTION ASSAY - IC50): 5.62 µM
CC(Oc1ccc(C#N)cc1)C(=O)Nc1nc(-c2ccccn2)cs1 (stereo unspecified) | 3.36 | – | IC50 (HEPG2TOX_HILL_SLOPE 1.33, HEPG2TOX_R_SQUARED 0.927, PBLUC_HILL_SLOPE 145, PBLUC_R_SQUARED 0.223, read-out: LUCIFERASE INFECTION ASSAY - IC50): 3.31 µM
CC(C)c1ccc(-n2c(SCc3c(F)cccc3Cl)nnc2-c2ccc(C(C)(C)C)cc2)cc1 | 5.28 | – | IC50 (HEPG2TOX_HILL_SLOPE 7.75, HEPG2TOX_R_SQUARED 0.388, PBLUC_HILL_SLOPE 5.31, PBLUC_R_SQUARED 0.644, read-out: LUCIFERASE INFECTION ASSAY - IC50): 3.49 µM
O=C(CSc1ccc(C(F)(F)F)cn1)Nc1cc(C(F)(F)F)cc(C(F)(F)F)c1 | > 7.36 | > 7.36 | –
NC(Cc1ccc(C(F)(F)F)cc1)c1csc(Nc2nncc3ccccc23)n1 (stereo unspecified) | > 7.94 | > 7.94 | –
CN(C)c1cccc(-c2cnc3cnc(-c4cccc(C(N)=O)c4)cn23)c1 | > 9.23 | – | IC50 (PBLUC_HILL_SLOPE 15.5, PBLUC_R_SQUARED 0.533, read-out: LUCIFERASE INFECTION ASSAY - IC50): 8.74 µM
CN(c1ccccc1)c1ccc(CN2CCC3(CC2)C(=O)N(CCc2ccccc2)C(=O)N3C)cc1 | 3.1 | – | IC50 (HEPG2TOX_HILL_SLOPE 3.73, HEPG2TOX_R_SQUARED 0.979, PBLUC_HILL_SLOPE 9.4, PBLUC_R_SQUARED 0.597, read-out: LUCIFERASE INFECTION ASSAY - IC50): 2.46 µM
Cc1c(Sc2ccc(F)cc2)c2ccccn2c1/C(=N\S(=O)(=O)c1cccs1)c1ccccc1 | > 10 | > 10 | –
COC(=O)c1cc2ccccc2cc1OC(=O)COc1ccc(C#N)cc1 | > 10 | > 10 | –
Cc1nn(-c2cccc(C(F)(F)F)c2)c2c1C=Nc1cc(S(=O)(=O)N3CCOCC3)ccc1O2 | > 10 | – | IC50 (PBLUC_HILL_SLOPE 4.52, PBLUC_R_SQUARED 0.617, read-out: LUCIFERASE INFECTION ASSAY - IC50): 8.73 µM

Compound | IC90 [µM] | IC50 [1] [µM] | also measured
O=C(NCc1cc(Cl)c2c(c1)OCCCO2)c1cnn(Cc2ccccc2)c1 | > 10 | – | IC50 (HEPG2TOX_HILL_SLOPE 3.36, HEPG2TOX_R_SQUARED 0.962, PBLUC_HILL_SLOPE 1.54, PBLUC_R_SQUARED 0.197, read-out: LUCIFERASE INFECTION ASSAY - IC50): 9.57 µM
CN(C)c1ncnc2scc(-c3ccc(Cl)cc3)c12 | > 11.4 | 4.05 | –
FC(F)(F)c1cc(N/N=C2/CCSc3sccc32)cc(C(F)(F)F)c1 | > 8.33 | – | IC50 (PBLUC_HILL_SLOPE 3.14, PBLUC_R_SQUARED 0.463, read-out: LUCIFERASE INFECTION ASSAY - IC50): 4.15 µM
CC(C)c1ccc2cc(C(=O)Nc3ccc4c(c3)NC(=O)CO4)[nH]c2c1 | 2.97 | – | IC50 (HEPG2TOX_HILL_SLOPE 0.683, HEPG2TOX_R_SQUARED 0.922, PBLUC_HILL_SLOPE 2.26, PBLUC_R_SQUARED 0.558, read-out: LUCIFERASE INFECTION ASSAY - IC50): 1.13 µM
COc1cc2c(cc1OC)C(c1ccccc1C(F)(F)F)CC(=O)N2 (stereo unspecified) | > 9.39 | – | IC50 (PBLUC_HILL_SLOPE 2.57, PBLUC_R_SQUARED 0.0741, read-out: LUCIFERASE INFECTION ASSAY - IC50): 7.98 µM
O=[N+]([O-])c1cc(C(F)(F)F)ccc1Sc1nnc(-c2ccc(Cl)cc2)[nH]1 | > 8.23 | – | IC50 (FFLUC_HILL_SLOPE 0.154, FFLUC_R_SQUARED 0.106, read-out: LUCIFERASE INFECTION ASSAY - IC50): > 8.23 µM
Cc1[nH]c(=O)[nH]c(=O)c1C(=O)/C=C/c1cn(-c2ccccc2)nc1-c1cc2ccccc2o1 | > 10 | > 10 | –
Cn1ccnc1Sc1cnc(SCC(=O)c2ccc(Cl)cc2)nc1-c1ccccc1 | > 7.28 | > 7.28 | –
COc1ccc(CNCc2ccc3ccccc3c2)cc1 | > 11.9 | > 11.9 | –
O=C(Nc1cc(C(F)(F)F)cc(C(F)(F)F)c1)Nc1sccc1Cl | 2.93 | – | IC50 (HEPG2TOX_HILL_SLOPE 3.73, HEPG2TOX_R_SQUARED 0.682, PBLUC_HILL_SLOPE 3.61, PBLUC_R_SQUARED 0.656, read-out: LUCIFERASE INFECTION ASSAY - IC50): 1.59 µM
CCOC(=O)c1cc(C#N)c(Sc2n[nH]c(=O)n2Cc2ccc(C(F)(F)F)cc2)nc1C | > 7.12 | – | IC50 (FFLUC_HILL_SLOPE 26.6, FFLUC_R_SQUARED 0.376, read-out: LUCIFERASE INFECTION ASSAY - IC50): > 7.12 µM
CS(=O)(=O)c1ccc(-c2cnc3ccc(Cc4ccc(F)cc4)nn23)cc1 | 3.4 | 2.9 | –
CCc1c(C)sc2nc(SCC(=O)Nc3cc(C)on3)n(-c3ccc(O)cc3C)c(=O)c12 | 8.83 | 3.89 | –
COc1ccc(-c2csc3ncnc(NCc4cccnc4)c23)cc1 | > 10 | – | IC50 (HEPG2TOX_HILL_SLOPE 6.97, HEPG2TOX_R_SQUARED 0.88, PBLUC_HILL_SLOPE 2.74, PBLUC_R_SQUARED 0.795, read-out: LUCIFERASE INFECTION ASSAY - IC50): 6.71 µM
Cn1c(CNC(=O)c2ccc(Cl)cc2)nc2ccccc21 | > 11 | > 11 | –
FC(F)(F)c1cccc(Nc2nccc3nc(-c4ccccc4Cl)[nH]c23)c1 | > 10 | – | IC50 (FFLUC_HILL_SLOPE 7.35, FFLUC_R_SQUARED 0.132, HEPG2TOX_HILL_SLOPE 0.352, HEPG2TOX_R_SQUARED 0.695, PBLUC_HILL_SLOPE 1.25, PBLUC_R_SQUARED 0.396, read-out: LUCIFERASE INFECTION ASSAY - IC50): 3.07 µM
COc1ccc(Nc2nnc(SCc3cn4c(C)cccc4n3)s2)cc1 | 3.76 | – | IC50 (HEPG2TOX_HILL_SLOPE 1.62, HEPG2TOX_R_SQUARED 0.963, PBLUC_HILL_SLOPE 37.7, PBLUC_R_SQUARED 0.0792, read-out: LUCIFERASE INFECTION ASSAY - IC50): 3.55 µM
CS(=O)(=O)c1nc2ccccc2n1CC(=O)c1ccc2c(c1)CCO2 | > 10 | – | IC50 (PBLUC_HILL_SLOPE 0.389, PBLUC_R_SQUARED 0.133, read-out: LUCIFERASE INFECTION ASSAY - IC50): > 10 µM
O=C1C(c2ccccc2)=C(Nc2cc(C(F)(F)F)cc(C(F)(F)F)c2)c2ccccc21 | 0.879 | – | IC50 (FFLUC_HILL_SLOPE 4.26, FFLUC_R_SQUARED 0.731, HEPG2TOX_HILL_SLOPE 18.3, HEPG2TOX_R_SQUARED 0.933, PBLUC_HILL_SLOPE 2.24, PBLUC_R_SQUARED 0.855, read-out: LUCIFERASE INFECTION ASSAY - IC50): 0.329 µM
Nc1cccc(-c2cn3c(-c4ccc5c(c4)OCO5)cnc3cn2)c1 | 8.12 | – | IC50 (PBLUC_HILL_SLOPE 4.69, PBLUC_R_SQUARED 0.303, read-out: LUCIFERASE INFECTION ASSAY - IC50): 5.08 µM
N#CC(C(=O)COC(=O)c1nc(-c2ccccc2)n(-c2ccccc2)n1)=C1Nc2ccccc2N1 | > 10 | > 10 | –
